Data published in publication doi:10.1101/2023.02.01.526632v1 (biorxiv, 2023).

Target: T1, BAP1 (Homo sapiens, UniProt Q92560)
T1 sequence (Q92560 1-729): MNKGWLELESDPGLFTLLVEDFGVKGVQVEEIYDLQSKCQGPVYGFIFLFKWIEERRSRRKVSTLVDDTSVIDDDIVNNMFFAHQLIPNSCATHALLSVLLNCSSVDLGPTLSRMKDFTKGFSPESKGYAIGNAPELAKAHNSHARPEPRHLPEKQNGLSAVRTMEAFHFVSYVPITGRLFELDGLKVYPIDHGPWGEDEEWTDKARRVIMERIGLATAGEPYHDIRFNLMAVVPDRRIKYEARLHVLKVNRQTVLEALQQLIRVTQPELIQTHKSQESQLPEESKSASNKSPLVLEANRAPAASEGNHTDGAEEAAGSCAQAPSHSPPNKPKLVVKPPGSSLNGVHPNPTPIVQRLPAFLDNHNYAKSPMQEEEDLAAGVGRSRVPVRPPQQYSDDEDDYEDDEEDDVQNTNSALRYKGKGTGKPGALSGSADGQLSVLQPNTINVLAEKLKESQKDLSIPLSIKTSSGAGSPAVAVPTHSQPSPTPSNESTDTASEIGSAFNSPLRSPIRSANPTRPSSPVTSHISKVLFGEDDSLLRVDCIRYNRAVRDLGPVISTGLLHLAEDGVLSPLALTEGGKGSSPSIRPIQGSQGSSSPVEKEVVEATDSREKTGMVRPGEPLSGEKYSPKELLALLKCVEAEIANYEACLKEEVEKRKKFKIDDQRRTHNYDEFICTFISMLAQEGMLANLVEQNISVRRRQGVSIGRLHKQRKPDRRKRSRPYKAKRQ
Assay: competition of Biotin-Ahx-Ub-VS labelling, DIA LC-MS/MS
Type: biochemical
Settings: covalent; lysate, 3 h preincubation, 0.5 μM ubiquitin probe

IC50: ~10 µM
SMILES: O=C(CCl)N1CCCC1c1ccc2c(c1)OCCO2 (stereo not shown) [compound 3, fragment 3]
